This is an account of results in publication PMC10609273, “Radiosynthesis and Early Evaluation of a Positron Emission Tomography Imaging Probe [^18F]AGAL Targeting Alpha-Galactosidase A Enzyme for Fabry Disease” (Molecules, 2023).

The test system of one series is P-gp and BCRP. Put plainly: Bidirectional permeability in Caco-2 cells. The class given is in vitro ADME. Particulars: human, Caco-2, with Elacridar (GF918) 10 µM, 5 µM, + 10 µM Elacridar (GF918) (dual inhibitor of P-gp and BCRP). The procedure: (§1) The Caco-2 cell culture and bidirectional permeability assays used in the study were adapted from previous studies at Takeda. Briefly, Caco-2 cells were obtained from American Type Culture Collection (ATCC) (Manassas, VA, USA) and were cultured in 175 cm^2 tissue culture T-flasks (Corning Life Sciences, Corning, NY, USA). For bidirectional permeability assays, cells were plated onto Costar 24-well culture plates (0.33 cm^2/well, […] (Corning Life Sciences, Corning, NY, USA) by adding 1 × 10^5 cells suspended in 0.2 mL of culture medium (Dulbecco’s modified Eagle’s medium [DMEM] with 0.1 mM non-essential amino acids, 2 mM L-glutamine, 4.5 g/L glucose, and 10% fetal bovine serum [FBS]) to the upper chamber of each well of the 24-well transwell plate. Cell-free culture medium (40 mL) was added to the lower chamber reservoir (Corning Life Sciences, Corning, NY, USA). The transwell plates were then incubated at 37 °C in an atmosphere of 5% CO2 for 25 days to ensure complete enterocyte-like differentiation of the cells, and the culture medium was changed every three to four days during the incubation period. Cell monolayers with transepithelial electrical resistance (TEER) values > 250 ohms × cm^2 were used for the bidirectional permeability assays.
(§2) All chemicals and reagents including control compounds were purchased from commercial sources such as Sigma-Aldrich or synthesized in house (pevonedistat and LY335979). Bidirectional transport studies were performed at 37 °C. Before each experiment, the confluent cell monolayers on transwell inserts were washed and equilibrated for 30 min with transport media (Hank’s Balanced Salt Solution [HBSS] containing 25 mM 4-(2-hydroxyethyl)-1-piperazineethanesulfonic acid [HEPES] and 10 mM glucose, pH 7.4 or 6.5). The bidirectional permeability of 5 µM of the cyclohexane derivative was assessed alone or in the presence of 5 µM LY335979, 5 µM K0143, or 10 µM Elacridar to inhibit P-gp, BCRP, and both efflux transporters, respectively. Additionally, the bi-directional permeability of 5 µM solutions of nadolol (low permeable control marker), minoxidil (high permeable marker), propranolol (high permeable marker), and pevonedistat (efflux transporter control) was also assessed. The experiment was initiated by adding a solution containing the test compounds and LY335979 to either the apical (for apical-to-basolateral [A-to-B] transport) or basolateral (for basolateral-to-apical [B-to-A] transport) compartment. Lucifer yellow (50 µM) was added to each donor chamber in the experiment to serve as a paracellular transport control and to monitor cell monolayer integrity. The apical volume was 0.2 mL and the basolateral volume was 1.0 mL. Bovine serum albumin (BSA, Sigma Aldrich) (5%) was added to the transport media on the receiver side to prevent non-specific binding of the test compound to the polystyrene well. After the addition of test compound into the donor side, […] of the receiving solution were withdrawn from the receiver side at 30 and 60 min. A […] of fresh transport media was immediately added to the receiver side at 30 and 60 min. The samples were placed into 96-well black plates (PerkinElmer Life Sciences, Boston, MA, USA) for fluorescence measurement (excitation at 450 nm and emission at 535 nm). After this measurement, the amounts of cyclohexane derivative and control compounds in each sample were quantified with liquid chromatography–mass spectrometry (LC–MS). The time course of drug transported across cell monolayers was analyzed to determine the time and rate of steady-state flux. The transport rate (total amount of drug present in the receiver chamber per unit time), Papp, and efflux ratio were calculated as described in Equations (4) and (5). […]
(Passage across Caco-2 layers is used to estimate intestinal permeability.)

The subject of the next series is Caco-2 cells. Put plainly: Bidirectional permeability in Caco-2 cells. The class given is in vitro ADME. The procedure: as §1, §2
A short description of series [1]: Bidirectional permeability in Caco-2 cells. The class given is in vitro ADME. Particulars: human, Caco-2, 5 µM, alone. The procedure:
as §1, §2

The next series deals with P-gp. The series is described as follows: Bidirectional permeability in Caco-2 cells. Particulars: human, Caco-2, with LY335979 5 µM. It is filed as in vitro ADME. The procedure: as §1, §2
A further series deals with BCRP. Put plainly: Bidirectional permeability in Caco-2 cells. The class given is in vitro ADME. Particulars: human. The procedure:
as §1, §2

The target in series [2] is 167 protein targets (human and rodent recombinant receptors and binding sites). The series is described as follows: Eurofins SpectrumScreen selectivity panel. The procedure: The AGAL molecule had ≥50% inhibition of specific binding or activity with IC50 values > 10 µM for a range of human and rodent recombinant receptors and binding sites (e.g., calcium and potassium channels and various subtypes of adrenergic, bombesin, calcitonin, serotonin, acetylcholine, histamine, and glutamate receptors or transporters).
The AGAL molecule was tested for estimated inhibition potency (IC50) and/or inhibition constants (Ki) on 167 protein targets (Eurofins SpectrumScreen).

The mark [3] stands for this setting: read-out: Ratio (B/A), efflux ratio.
Setting [4] is: 5 µM, + 5 µM LY335979 (P-gp inhibitor).
Where [5] appears, read: Caco-2, with KO143 5 µM, 5 µM, + 5 µM KO143 (BCRP inhibitor).

Molecules are shown by their SMILES. Like-named read-outs stand apart in the source and are kept apart here.

Broadly, the Papp A→B is the apparent permeability from the apical to the basolateral side of a cell layer. As a reminder, the Papp B→A is the apparent permeability from the basolateral to the apical side of a cell layer. In general, IC50 refers to the point on the concentration scale where inhibition reaches its midpoint. With `O=C(CCCCCCCn1cc(CCCF)nn1)N1[C@@H]2[C@H](O)[C@@H](O)[C@@H](O)[C@@H](CO)[C@@H]21` [AGAL], the Papp A→B at 60 min, 5 µM came out at 0.25 ×10⁻⁶ cm/s in the series on P-gp and BCRP; 0.11 ×10⁻⁶ cm/s in series [1]; 0.25 ×10⁻⁶ cm/s in the series on P-gp (setting [4]); 0.15 ×10⁻⁶ cm/s in the series on BCRP (setting [5]). In addition, the basolateral-to-apical permeability (Papp B→A) at 60 min, 5 µM in the series on P-gp and BCRP came to 0.74 ×10⁻⁶ cm/s; in series [1], 1.36 ×10⁻⁶ cm/s; with P-gp (setting [4]) it was 0.95 ×10⁻⁶ cm/s; in the series with BCRP (setting [5]), 1.31 ×10⁻⁶ cm/s. Besides, the efflux ratio at 60 min, 5 µM in the series with P-gp and BCRP (setting [3]) was found to be 2.9; in series [1] (setting [3]) it was 12; in the series on P-gp (by P-gp inhibitor LY335979, read-out: reduction of the efflux ratio), 3; with P-gp (5 µM, + 5 µM LY335979 (P-gp inhibitor), read-out: Ratio (B/A), efflux ratio) it was 3.9; in the series on BCRP (Caco-2, with K0143 5 µM, by BCRP inhibitor K0143, read-out: reduction of the efflux ratio), 1.4; with BCRP (Caco-2, with KO143 5 µM, 5 µM, + 5 µM KO143 (BCRP inhibitor), read-out: Ratio (B/A), efflux ratio), 8.7. The “reduction of the efflux ratio” value is 67% in the series on Caco-2 cells (by LY335979) and 76% in the series on Caco-2 cells (by elacridar). Also, in series [2] (range of human and rodent recombinant receptors and binding sites, read-out: IC50 values for off-target receptors and binding sites), the half-maximal inhibitory concentration (IC50) is above 10 µM. Further, in series [2] (selectivity panel, >160 proteins), the “inhibition of specific binding or activity” value was at least 50%.
